The values below come from the Bradley open melting point set (2014).

What is called melting point is the temperature, or range, at which the solid turns liquid.

“And” between values parts separate entries of the source, which are not always exact repeats. Identical values can stand only once.

The compound `Cc1cccnc1` [3-picoline] registered a melting point of -18 °C. Then `OCc1ccccc1` [Phenylmethanol], with -15 °C. For `CCCCCCCCCCCCCCO` [1-tetradecanol] the value was 40 °C. Then `NNC(=O)c1ccc(Br)cc1` [4-bromobenzhydrazide], with 168 °C; and `ON=C(c1ccccc1)c1ccccn1` [phenyl 2-pyridyl ketoxime], with 155 °C. As for `COc1cc(C(=O)NN)cc(OC)c1O` [3,5-dimethoxy-4-hydroxybenzhydrazide], the melting point was determined as 156 °C.

As to `ClCc1ccc(Cl)c(Cl)c1` [3,4-dichlorobenzyl chloride], the melting point was -3 °C.

As to `Nc1ncnc2c1ncn2[C@@H]1O[C@H](COP(=O)(O)O)[C@@H](O)[C@H]1O` [Adenosine monophosphate], the melting point was determined as 186 °C.

With `Cc1ccc[n+]([O-])c1` [3-picoline n-oxide], the melting point was 38 °C. Then `COc1cccc(C(=O)O)c1O` [2-hydroxy-3-methoxybenzoic acid], with 152 °C; and `CCC1(CCC(C)C)C(=O)NC(=O)NC1=O` [amobarbital], with 157 °C; and `CC(C)NCC1CCc2cc(CO)c([N+](=O)[O-])cc2N1` (configuration not stated) [oxamniquine], with 148 °C. `Cn1c(=O)c2[nH]cnc2n(C)c1=O` [theophylline] displayed a melting point of 270 °C. With `NC(=O)c1ccccc1O` [salicylamide], the melting point was 140 °C. Then `CC1(O)CCCCC1` [1-methylcyclohexanol], with 26 °C; and `Cc1cc[n+]([O-])cc1C#N` [4-methylpyridine-3-carbonitrile 1-oxide], with 185 °C; and `CCCCC(=O)O` [pentanoic_acid], with -34 °C. The compound `COc1cc(C=O)cc(OC)c1` [3,5-dimethoxybenzaldehyde] had a melting point of 46.3 °C.

Take `CC12CCC(=O)C=C1CCC1C2CCC2(C)C(O)CCC12` (configuration not stated) [testosterone]: the melting point stood at 153 °C. In turn, `CCOc1cccc(B(O)O)c1` [3-ethoxybenzeneboronic acid] showed a melting point of 144 °C. In turn, `C=C(C)[C@H]1Cc2c(ccc3c2O[C@@H]2COc4cc(OC)c(OC)cc4[C@@H]2C3=O)O1` registered a melting point of 166 °C. The compound `CCCCNC(=O)NCCCC` [N,N'-di-n-butylurea] came in with a melting point of 72 °C.

In turn, `CC(Br)CCCBr` (configuration not stated) [1,4-dibromopentane] displayed a melting point of -34 °C. Then `COc1cc2c(c(OC)c1OC)-c1ccc(OC)c(=O)cc1[C@@H](NC(C)=O)CC2` [Colchicine], with 156 °C; and `CCOC(=O)c1ccc(O)cc1` [ethyl p-hydroxybenzoate], with 116 °C. As for `O=C1C=C(/C=C/c2ccccc2)CCC1` [3-[(E)-2-phenylethenyl]cyclohex-2-en-1-one], the melting point was 66 °C. In turn, `Cc1ccccc1NC=O` [2-methylformanilide] yielded a melting point of 59 °C. `Oc1c(Cl)cccc1Cl` [2,6-dichlorophenol] gave a melting point of 67 °C.

The compound `COc1cc(OC)c(C=O)c(OC)c1` [2,4,6-trimethoxybenzaldehyde] returned a melting point of 121 °C. Then `CCC(=O)c1ccc(OCc2ccccc2)cc1` [4'-benzyloxypropiophenone], with 100 °C; and `CCOc1ccc(NC(C)=O)cc1` [4'-ethoxyacetanilide], with 135 °C. For `Cc1cc(C)c(C)c(CCl)c1C` [3-(chloromethyl)-1,2,4,5-tetramethylbenzene] the value was 70.5 °C. Then `CCNc1nc(NC(C)(C)C)nc(SC)n1` [terbutryn], with 105 °C. In turn, `CC(C)O` [2-propanol] registered a melting point of -88 °C. As to `O=[N+]([O-])c1ccc(Cl)c([N+](=O)[O-])c1` [1-chloro-2,4-dinitrobenzene], the melting point was determined as 53 °C.

`Oc1ccc(I)cc1` [p-iodophenol] returned a melting point of 94 °C. Turning to `CCN(CC)C(=S)SSC(=S)N(CC)CC` [tetraethylthiuram disulfide], the melting point turned out to be 71 °C. Consider `N#Cc1ccc(Cl)cc1` [4-chlorobenzonitrile], for which the melting point amounted to 92 °C.

In turn, `Nc1ccccc1N` [o-phenylenediamine] yielded a melting point of 102 °C.

For the compound `CSc1ccc(Br)cc1` [4-bromothioanisole], the melting point came to 39 °C. `O=C(O)c1cnccc1C(F)(F)F` [4-(trifluoromethyl)nicotinic acid] had a melting point of 148 °C. `O=[N+]([O-])c1ccc(O)c([N+](=O)[O-])c1` [2,4-Dinitrophenol]: the melting point came to 108 °C.

The compound `N#CCC(=O)c1ccco1` [2-furoylacetonitrile] came in with a melting point of 79 °C.

Compound `Nc1ccc(N=Nc2ccccc2)cc1` [4-(Phenyldiazenyl)aniline] came in with a melting point of 124 °C.

The compound `CC(C)c1ccc(Cl)cc1` [p-chlorocumene] came in with a melting point of -12 °C. Then `c1cc(OCC2CO2)cc(OCC2CO2)c1` (configuration not stated) [resorcinol diglycidyl ether], with 34 °C; and `CC1=CC(=O)CC1` [3-methyl-2-cyclopenten-1-one], with 2 °C. For `Clc1ccc(Cl)cc1` [1,4-Dichlorobenzene] the value was 53 °C. In turn, `O=C1CCCC1` [cyclopentanone] registered a melting point of -51 °C. For `CC(=O)OC1(C(C)=O)CCC2(C)C(CCC3C4CCCC4(C)CCC32)C1` (configuration not stated) [3-acetylandrostan-3-yl acetate] the value was 165 °C; for `CCCCC=O` [Valeraldehyde], -91.5 °C; for `CN1CCN(C2=Nc3cc(Cl)ccc3Nc3ccccc32)CC1` [clozapine], 184 °C. Then `CCCCCCCBr` [1-bromoheptane], with -56 °C; and `O=C(O)CCN1C(=O)c2ccccc2C1=O` [3-phthalimidopropionic acid], with 152 °C.

In the case of `O=C(CO)[C@@]3(O)CC[C@H]2[C@@H]4CC\C1=C\C(=O)\C=C/[C@]1(C)[C@H]4C(=O)C[C@@]23C` [prednisone], the melting point is 234 °C (2×) and 237 °C. Then `CCN1CCCC1CNC(=O)c1cc(S(N)(=O)=O)ccc1OC` (configuration not stated) [sulpiride], with 178 °C. For `CCCCCCCl` [1-chlorohexane] the value was -94 °C. In the case of `Cc1ccccc1CO` [2-methylbenzyl_alcohol], the melting point is 39 °C. `Oc1ccc(OCc2ccccc2)nc1` [2-benzyloxy-5-hydroxypyridine] yielded a melting point of 92 °C. For `COC(=O)c1ccccc1O` [methyl salicylate] the value was -9 °C; for `Cc1nnc2n1-c1ccc(Cl)cc1C(c1ccccc1Cl)=NC2` [Triazolam], 234 °C; for `Nc1cc(C(=O)O)ccc1Cl` [3-amino-4-chlorobenzoic acid], 216 °C. Then `O=S(=O)([O-])CCN1CC[NH+](CCO)CC1` [2-[4-(2-Hydroxyethyl)piperazin-4-ium-1-yl]ethanesulfonate], with 236 °C; and `Cc1cccc([N+](=O)[O-])c1` [3-nitrotoluene], with 16 °C.

As to `O=C1OC(=O)C2C3C=CC(C3)C12` (stereo not drawn) [cis-5-norbornene-endo-2,3-dicarboxylic anhydride], the melting point turned out to be 166 °C. Turning to `O=C(O)c1cccc2ccccc12` [1-Naphthoic acid], the melting point was 162 °C.

`NCCO` [2-Aminoethanol]: the melting point amounted to 11 °C. Then `CCCOc1ccc2[nH]c(NC(=O)OC)nc2c1` [oxibendazole], with 230 °C. For `c1ccc2c(c1)ccc1ccccc12` [phenanthrene] the value was 100 °C; for `CC(CCc1ccccc1)NCC(O)c1ccc(O)c(C(N)=O)c1` (configuration not stated) [labetalol], 188 °C; for `O=[N+]([O-])c1ccc(F)c([N+](=O)[O-])c1` [1-fluoro-2,4-dinitrobenzene], 27 °C. The compound `c1ccc(COCc2ccccc2)cc1` [dibenzyl ether] registered a melting point of 4 °C. `Nc1ccc(Cl)cc1` [4-Chloroaniline] displayed a melting point of 72.5 °C. Compound `O=Cc1ccc(B(O)O)cc1Cl` [3-chloro-4-formylbenzeneboronic acid] registered a melting point of 212 °C. Regarding `O=[N+]([O-])c1ccccc1O` [2-Nitrophenol], the melting point turned out to be 44 °C.

In turn, `C=CCO` [allyl alcohol] gave a melting point of -129 °C. The compound `CCCOC(C)=O` [N-propyl acetate] had a melting point of -92 °C. As for `COC(=O)c1ccc(N)cc1` [Methyl 4-aminobenzoate], the melting point is 114 °C.

The compound `O=Cc1ccc(OCC(=O)O)cc1` [4-formylphenoxyacetic acid] displayed a melting point of 196 °C.

`CN1CCC[C@H]1c1cccnc1` [(S)-nicotine] had a melting point of -79 °C.

Regarding `c1ccc2c(c1)c1ccccc1c1ccccc21` [Triphenylene], the melting point was 199 °C. Then `Fc1c(F)c(F)c(B(c2c(F)c(F)c(F)c(F)c2F)c2c(F)c(F)c(F)c(F)c2F)c(F)c1F` [tris(pentafluorophenyl)borane], with 128 °C; and `CCCCCCCCCCCl` [1-chlorodecane], with -31 °C. For `OB(O)c1ccc2ccccc2c1` [2-naphthaleneboronic acid] the value was 267 °C; for `CC(C)C` [Isobutane], -160 °C.

`O=C(CBr)c1ccc(Br)cc1` [2,4'-dibromoacetophenone] showed a melting point of 110 °C. Then `CCC1(c2ccccc2)CCC(=O)NC1=O` (configuration not stated) [glutethimide], with 87.5 °C; and `COC(=O)c1ccc(F)cc1O` [methyl 4-fluorosalicylate], with 39 °C; and `CCCCCCCCCCCCCCCCCO` [1-heptadecanol], with 58 °C.

In turn, `CCOC(=O)c1ccc(O)cc1` [ethyl 4-hydroxybenzoate] gave a melting point of 117 °C. Consider `N[C@@H](Cc1cc(I)c(Oc2cc(I)c(O)c(I)c2)c(I)c1)C(=O)O` [Levothyroxine], for which the melting point was determined as 236 °C. `O=C(O)c1cc(F)cc(C(F)(F)F)c1` [3-fluoro-5-(trifluoromethyl)benzoic acid]: the melting point turned out to be 104 °C.
